Data on 3 compounds can be found in patent US9726669B2, “Biomarkers for determining sensitivity of breast cancer cells to HER2-targeted therapy” (PIERIAN HOLDINGS, INC., priority 2009, dated 2017).

Assay [1] concerns ER-positive breast cancer. To be noted: cited from earlier work.
The test system of another assay is T47D cells. Put plainly: COPIA RTK activation in growth factor stimulated T47D cells. Format: cell-based, human. The conditions noted are these: T47D cells stimulated with EGF or HRG. The procedure:
(§1) SKBr3, MDA-MB-468, T47D and BT474 cell lines were obtained from ATCC. Cells were grown in the following growth media in 100 mm tissue culture plates at 37° C. in 5% CO2: SKBr3 McCoy's 5A medium with 10% FBS, MDA-MB-468: DMEM, 10% FBS, BT474: DMEM, 10B FBS, T47D: RPMI 1640, 10% FBS, 0.2 U/ml bovine insulin. Cells were harvested at 70-80% confluency with gentle detachment process (trypsin treatment+subsequent inactivation) and were subsequently counted and washed with 1×PBS. Cell stimulation was performed with 100 uM EGF or 20 uM heregulin β or both in serum-free growth media for 5 min. Stimulated cells were washed with 1×PBS and then were lysed (lysis buffer: 50 mM Tris, pH 7.4, 150 mM NaCl, 1% Trition X-100 and 200 mM Na3VO4) and kept on ice for 30 min.
(§2) Slides were first rinsed two times with TBST (50 mM Tris/150 mM NaCl/0.1% Tween-20, pH 7.2-7.4) before blocking them with 80 ul of Whatman Blocking Buffer 1 hr at RT or O/N at 4 C. After the blocking process, slides were washed 2 times with TBST. […]

The test system of a further assay is MDA MB 468 cells. Put plainly: COPIA per-cell RTK activation in growth factor stimulated MDA-MB-468 cells. Format: cell-based, human. To be noted: MDA MB 468 cells stimulated with EGF. The procedure: as §1, §2
A further assay relates to VEGF. To be noted: with chemotherapy; patients with colorectal, breast, and lung cancers; cited from earlier work.
Sequence of VEGF (P15692 207-311 limits assumed): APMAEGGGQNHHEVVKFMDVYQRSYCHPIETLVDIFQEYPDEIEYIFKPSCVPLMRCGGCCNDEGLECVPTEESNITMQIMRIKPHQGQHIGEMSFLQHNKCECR

`CC/C(=C(\c1ccccc1)c1ccc(OCCN(C)C)cc1)c1ccccc1` [Tamoxifen]: in assay [1] (adjuvant therapy studies), the “reduction in the odds of recurrence and mortality” value is reported as 40% to 50%. Further, the “patients with temporary remission” value in assay [1] (patients with metastatic disease) was 30% to 50%.

Consider “EGF: epidermal growth factor, stimulatory growth factor used to induce HER1 phosphorylation (NSDSECPLSHDGYCLHDGVCMYIEALDKYACNCVVGYIGERCQYRDLKWWELR; Epidermal growth factor; UniProt P01133 971-1023, looked up)”, for which, in the assay with T47D cells, the HER1 activation result is “resulted in both HER1 and HER2 activation”; the HER2 activation result is “resulted in both HER1 and HER2 activation”. For the same compound, the “level of pHER1 per cell” value in the assay with MDA MB 468 cells worked out at 992.5 RFU/cell.

Bevacizumab: in the assay on VEGF, the survival entry is on record as “improve survival”.
